The record followed here is patent US8197859B2, “Lipolysis stimulator” (Kao Corporation, priority 2006, dated 2012).

Common to all, as to type: cell-based, rat (male Wistar)
In assay [1] the test system is free adipocytes from abdominal subcutaneous adipose tissue. The experiment in a line: Test Example 3: lipolysis-stimulating activity (free glycerol) in free adipocytes with norepinephrine; Huang Hua Cai extract and aminophylline. The settings on record: Rattus norvegicus, Adipocyte, aminophylline singly, 90 nM norepinephrine, control = 100%.
Procedure: (§1) Specifically, free adipocytes were recovered from the abdominal subcutaneous adipose tissue of each of one to three male Wistar rats (each having a body weight of 170 to 230 g) by use of a collagenase solution.
(§2) The free adipocytes were incubated at 37° C. for 2 hours in a Hanks buffer solution containing bovine serum albumin and 90 nM norepinephrine (reaction mixture) to which each test substance had been added. The resultant free glycerol was assayed through an enzymatic method (Free Glycerol Reagent, product of Sigma-Aldrich).
(§3) As a control, adipocytes were incubated in the same buffer containing only norepinephrine but no test substance.
(§4) Lipolysis-stimulating activity was calculated by the following equation, with 100% being a control value. Lipolysis-stimulating activity(%)=100×(free glycerol in each group)/(free glycerol in control group)
The procedure of Test Example 1 was repeated, except that caffeine was changed to aminophylline. The following substances were tested: and two different mixtures of Huang Hua Cai extract and aminophylline (hereinafter referred to as “Huang Hua Cai-aminophylline mixture”), i.e., Huang Hua Cai-aminophylline mixture 1 (Huang Hua Cai extract+1 μg/mL aminophylline), and a Huang Hua Cai-aminophylline mixture 2 (Huang Hua Cai extract+3 μg/mL aminophylline).
Aminophylline employed in the test was a commercial product (Sigma-Aldrich). […]
For assay [2] the test system is unchanged. As to the kind of experiment: Test Example 1: lipolysis-stimulating activity (free glycerol) in free adipocytes with norepinephrine; Huang Hua Cai extract and caffeine. The settings on record: Rattus norvegicus, Adipocyte, caffeine singly, 90 nM norepinephrine, 37° C., 2 hours, control = 100%.
Procedure: The Rodbell's method (Rodbell, M., J. Biol. Chem., 239, 375 (1964)) was employed. Specifically, free adipocytes were recovered from the abdominal subcutaneous adipose tissue of each of one to three male Wistar rats (each having a body weight of 170 to 230 g) by use of a collagenase solution.
The following substances were tested: the Huang Hua Cai extract (singly), caffeine (singly), and two different mixtures of Huang Hua Cai extract and caffeine (hereinafter referred to as “Huang Hua Cai-caffeine mixture”), i.e., Huang Hua Cai-caffeine mixture 1 (Huang Hua Cai extract+10 μg/mL caffeine), and Huang Hua Cai-caffeine mixture 2 (Huang Hua Cai extract+30 μg/mL caffeine).
as §2
To the reaction mixture, added the Huang Hua Cai extract at the final concentration of 0, 3, 10, 30 and 100 μg/mL, respectively, and caffeine at the final concentration of 0, 10 and 30 μg/mL, respectively. […]
Lipolysis-stimulating activity was calculated by the following equation, with 100% being a control value. […]
Assay [3] shares this test system. The experiment in a line: Test Example 2: lipolysis-stimulating activity (free glycerol) in free adipocytes with norepinephrine; Huang Hua Cai extract and theophylline. The settings on record: Rattus norvegicus, Adipocyte, theophylline singly, 90 nM norepinephrine, control = 100%.
Procedure: as §1, §2, §3, §4
The following substances were tested: the Huang Hua Cai extract (singly), theophylline (singly), and two different mixtures of Huang Hua Cai extract and theophylline (hereinafter referred to as “Huang Hua Cai-theophylline mixture”), i.e., Huang Hua Cai-theophylline mixture 1 (Huang Hua Cai extract+1 μg/mL theophylline), and a Huang Hua Cai-theophylline mixture 2 (Huang Hua Cai extract+3 μg/mL theophylline). […]

For `Cn1c(=O)c2[nH]cnc2n(C)c1=O` [Aminophylline, aminophylline], in assay [1] (1 μg/mL), the activity at 1 µg/mL amounted to 140%. For the same molecule, the activity at 3 µg/mL in assay [1] (3 μg/mL) was determined as 197%.

As to `Cn1c(=O)c2c(ncn2C)n(C)c1=O` [Caffeine, caffeine], in assay [2] (10 μg/mL), the activity at 10 µg/mL was 157%. The activity at 30 µg/mL in assay [2] (30 μg/mL) amounted to 207%.

For `Cn1c(=O)c2[nH]cnc2n(C)c1=O` [Theophylline, theophylline], the activity at 1 µg/mL in assay [3] (1 μg/mL) amounted to 142%. In addition, the activity at 3 µg/mL in assay [3] (3 μg/mL) stood at 188%.
